Patent US20220127267A1, “THIENO[3,2-B] PYRROLE[3,2-D]PYRIDAZINONE DERIVATIVES AND THEIR USE AS PKM2 DERIVATIVES FOR THE TREATMENT OF CANCER, OBESITY AND DIABETES RELATED DISORDERS” (Agios Pharmaceuticals, Inc., priority 2019, published 2022)

Columns and labels:
RBCs = test: Cell Based ATP Assay in purified red blood cells (Cell-Titer-Glo); set-up: species or system human; conditions: wild type PKR, ATP levels in RBCs, overnight at 37° C.
Protocol: Fresh blood drawn from healthy volunteers into K2EDTA tubes was collected. Whole blood was pelleted by spinning at 500 g for 10 minutes. The transfusion bag port was cut off Purecell leukocyte reduction neofilter (Fisher NC0267633) one (1) inch above filter. A 10 ml syringe barrel was attached to the remaining cut tubing attached to the neofilter. The plasma layer was removed from the pellet of the whole blood and the pellet was resuspended in 2× volume of phosphate buffered saline (PBS). 9 ml re-suspended blood cell pellet was transferred to a 10 ml syringe that was attached to the neofilter. The whole blood was allowed to gravity flow through filter until all fluid ran through upper tubing into a filter disc. The plunger was added to the syringe. The filter was inverted and air was plunged through the syringe filter system. A new 5 ml syringe was used to remove filtered RBCs from the bag by the syringe port. Purified RBCs were transferred to a 5 ml snap cap tube that had been incubated on ice. The 5 ml snap cap tube was spun at 500 g for 10 minutes at 15 C. Supernatant was aspirated and resuspended in AGAM (1×PBS, 1% glucose, 170 mg/L adenine, 5.25 g/L mannitol) at a density of 4×10^9 cells/mL.
For cell based ATP assays, the compound as described herein was prepared in 100% DMSO as a 10 mM stock. Serial dilutions (1:4) were performed in 96-well V-bottom storage plate and then added 1:100 to 96-well V-bottom plates containing AGAM. 10 μL/well of compound diluted in AGAM was added to black clear bottom assay plates. RBCs were diluted in AGAM media to a density of 1×10^7 cells/mL before added 90 μL/well to black clear bottom assay plates (final compound concentration at 0.1% DMSO concentration). Assay plates were sealed using aluminum foil seals and incubated overnight at 37° C. in a humidified chamber. ATP levels were read out using Cell-Titer-Glo (Promega).

PKM2 WT = PKM2 WT (Homo sapiens, UniProt P14618); test: PKM2 Assay, LDH-coupled, absorbance 340 nm; assay type: biochemical; conditions: wild type PKM2 enzyme activation
Chain of PKM2 WT (P14618 whole entry): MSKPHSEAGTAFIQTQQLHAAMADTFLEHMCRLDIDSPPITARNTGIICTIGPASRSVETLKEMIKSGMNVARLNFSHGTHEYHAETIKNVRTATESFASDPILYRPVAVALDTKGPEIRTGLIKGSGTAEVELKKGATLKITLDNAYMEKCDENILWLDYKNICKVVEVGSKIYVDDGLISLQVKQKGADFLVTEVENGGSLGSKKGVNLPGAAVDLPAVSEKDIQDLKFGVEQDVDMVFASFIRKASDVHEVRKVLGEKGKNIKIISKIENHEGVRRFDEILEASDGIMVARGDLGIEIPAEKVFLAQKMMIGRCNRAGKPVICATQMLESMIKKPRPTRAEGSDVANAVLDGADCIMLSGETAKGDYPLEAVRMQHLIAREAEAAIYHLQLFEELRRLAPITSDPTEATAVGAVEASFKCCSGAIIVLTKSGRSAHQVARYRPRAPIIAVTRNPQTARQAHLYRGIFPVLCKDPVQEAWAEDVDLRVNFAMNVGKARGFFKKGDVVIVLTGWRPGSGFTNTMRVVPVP
Protocol: (§1) PKM2 enzyme stock solution was diluted to prepare a 1.25× Reaction Mix (without ADP). 1 μL of test compound was first added to the wells followed by 40 μL of 1.25× Reaction Mix (without ADP) and incubated at room temperature (25° C.) for 60 min. The reaction was initiated with 10 μL ADP (0.4 mM final concentration), bringing the final Reaction Mix to 1x, and the reaction progress was measured as changes in absorbance at 340 nm wavelength at room temperature.
(§2) Test compound preparation: Test compounds were prepared at 50× final concentration in DMSO. 1 to 3 dilutions were made for 11 points (for example 50 μL of 5000 μM compound was added to 100 μL 100% DMSO to yield a 1667 μM, 50 μL of this added to 100 μL DMSO to yield 556 μM, and so forth). The compounds were added to the assay as a 1 to 50 dilution (1 μL in 50 μL) to yield a top concentration of 100 μM, decreasing 3-fold for 11 points.
Reaction Mix: PKM2 (5 ng/well, 0.1 μg/ml), ADP (0.4 mM), PEP (0.11 mM), NADH (180 μM), LDH (0.005 U/μL, Sigma #L3888), 1 mM DTT, 0.03% BSA in 1×
(§3) Reaction Buffer: 100 mM KCl, 50 mM Tris pH 7.5, 5 mM MgCl2.

PKR WT = PKR WT (Homo sapiens, UniProt P30613); test: PKR enzyme assay (WT), LDH-coupled, absorbance 340 nm; assay type: biochemical; conditions: wild type PKR enzyme activation
Chain of PKR WT (P30613 whole entry): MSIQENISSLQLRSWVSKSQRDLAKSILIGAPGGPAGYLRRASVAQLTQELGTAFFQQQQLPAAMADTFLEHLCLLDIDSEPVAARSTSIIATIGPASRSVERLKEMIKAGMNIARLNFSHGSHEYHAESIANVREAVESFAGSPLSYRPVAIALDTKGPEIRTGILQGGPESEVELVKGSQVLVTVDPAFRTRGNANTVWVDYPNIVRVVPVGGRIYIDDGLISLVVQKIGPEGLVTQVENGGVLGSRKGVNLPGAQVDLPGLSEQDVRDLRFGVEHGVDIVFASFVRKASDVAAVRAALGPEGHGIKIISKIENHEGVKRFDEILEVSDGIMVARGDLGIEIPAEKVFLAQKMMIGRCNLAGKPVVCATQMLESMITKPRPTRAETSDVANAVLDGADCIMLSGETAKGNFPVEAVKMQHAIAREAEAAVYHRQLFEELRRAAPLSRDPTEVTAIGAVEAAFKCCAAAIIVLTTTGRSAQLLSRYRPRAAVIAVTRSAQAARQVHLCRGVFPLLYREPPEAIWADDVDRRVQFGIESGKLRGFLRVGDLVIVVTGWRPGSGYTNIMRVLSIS
Protocol: as §1, with “PKR (WT or mutant)” for “PKM2”, “ADP,” for “ADP (0.4 mM final concentration),”
as §2
(§4) Reaction Mix: PKR (1.25-1000 ng/well, 0.025-20 μg/ml depending on the PKR mutant), ADP (0.05-2.3 mM depending on the PKR mutant), PEP (0.031-2 mM depending on the PKR mutant), NADH (180 μM), LDH (0.005 U/μL, Sigma #L3888), 1 mM DTT, 0.03% BSA in 1× Reaction Buffer
as §3

PKR K410E = PKR K410E (Homo sapiens, UniProt P30613, K410E); test: PKR Mutant Assay (K410E), LDH-coupled, absorbance 340 nm; assay type: biochemical; conditions: mutant PKR K410E enzyme activation
Chain of PKR K410E (P30613 whole entry K410E): as the sequence (P30613 whole entry) above, with K410E counted along it
Protocol: as §1, with “PKR (WT or mutant)” for “PKM2”, “ADP,” for “ADP (0.4 mM final concentration),”
as §2, §4, §3

PK R510Q = PK R510Q (Homo sapiens, UniProt P30613, R510Q); test: PKR Mutant Assay (R510Q), LDH-coupled, absorbance 340 nm; assay type: biochemical; conditions: mutant PKR R510Q enzyme activation
Chain of PK R510Q (P30613 whole entry R510Q): as the sequence (P30613 whole entry) above, with R510Q counted along it
Protocol: as §1, with “PKR (WT or mutant)” for “PKM2”, “ADP,” for “ADP (0.4 mM final concentration),”
as §2, §4, §3

PKM2 = PKM2 (Mus musculus, UniProt P52480); conditions: in vivo; cited from earlier work
Chain of PKM2 (P52480 whole entry): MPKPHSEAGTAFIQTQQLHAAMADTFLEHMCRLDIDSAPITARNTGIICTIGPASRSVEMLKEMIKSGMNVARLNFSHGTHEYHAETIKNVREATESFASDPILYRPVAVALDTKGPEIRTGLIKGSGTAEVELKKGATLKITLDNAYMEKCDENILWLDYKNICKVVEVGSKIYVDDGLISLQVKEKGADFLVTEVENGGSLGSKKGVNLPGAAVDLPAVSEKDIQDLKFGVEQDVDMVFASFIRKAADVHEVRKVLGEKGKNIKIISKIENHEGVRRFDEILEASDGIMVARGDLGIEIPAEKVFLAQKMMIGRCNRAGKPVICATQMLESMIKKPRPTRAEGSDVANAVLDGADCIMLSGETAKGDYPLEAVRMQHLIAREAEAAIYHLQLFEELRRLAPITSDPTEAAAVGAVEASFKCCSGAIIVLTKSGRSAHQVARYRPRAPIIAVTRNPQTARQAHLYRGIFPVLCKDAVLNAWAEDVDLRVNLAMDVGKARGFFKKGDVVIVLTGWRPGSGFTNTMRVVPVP

Structure (SMILES)	AC50 (PKM2 WT)	PKR WT AC50 (PKR WT)	PKR K410E AC50 (PKR K410E)	PK R510Q AC50 (PK R510Q)	AC50 (PKR WT)	AC50 (PKR K410E)	AC50 (PK R510Q)	Cell based ATP assay AC50 (RBCs)	AC50 (RBCs; Homo sapiens, Erythrocyte)	LPS and IL-1β production (PKM2)	production of IL-10 (PKM2)
Cn1cc(Cc2ccc3c(c2)c2cnn(Cc4cccc(C(N)=O)c4)c(=O)c2n3C)cn1 [Cpd 35]	301 to 800 nM	No Fit	No Fit	No Fit				No Fit			
COc1cccc(Cn2ncc3c4c(Cc5ccccc5)cccc4n(C)c3c2=O)c1 [Cpd 61]	> 800 nM	No Fit	No Fit	No Fit							
COc1cccc(Cn2ncc3c4cccnc4n(C)c3c2=O)c1 [Cpd 66]	301 to 800 nM				> 800 nM	> 800 nM	301 to 800 nM				
COc1cccc(Cn2ncc3c4nn(C)cc4n(C)c3c2=O)c1 [Cpd 30]	> 800 nM				> 800 nM	> 800 nM	> 800 nM				
Cn1ccc(Cn2ncc3c4cc(Cc5cscn5)ccc4n(C)c3c2=O)n1 [Cpd 31]	> 800 nM				> 800 nM	> 800 nM	> 800 nM		> 1000 nM		
C=Cc1ccc2c(c1)c1cnn(Cc3cccc(OC)c3)c(=O)c1n2C [Cpd 39]	> 800 nM				> 800 nM	> 800 nM	> 800 nM				
Cn1c2cc([S+](C)[O-])sc2c2cnn(Cc3cccc(N)c3)c(=O)c21 (stereo not shown) [TEPP-46]										inhibited	boosting
COc1cccc(Cn2ncc3c4c(Br)cccc4n(C)c3c2=O)c1 [Cpd 32]	> 800 nM				> 800 nM	> 800 nM	> 800 nM				
COc1cccc(Cn2ncn3c(c(C)c4nc(C)sc43)c2=O)c1 [Cpd 25]	> 800 nM				> 800 nM	> 800 nM	> 800 nM	No Fit			
COc1cccc(Cn2ncc3c4n[nH]cc4n(C)c3c2=O)c1 [Cpd 29]	> 800 nM				> 800 nM	> 800 nM	> 800 nM				
COc1cccc(Cn2ncc3c4ncccc4n(C)c3c2=O)c1 [Cpd 65]	> 800 nM				> 800 nM	> 800 nM	> 800 nM				
COc1cccc(Cn2ncc3c4cccc(Cc5ccccc5)c4n(C)c3c2=O)c1 [Cpd 59]	> 800 nM			No Fit	> 800 nM	> 800 nM					
COc1cccc(Cn2ncc3c4cc(C(F)(F)F)ccc4n(C)c3c2=O)c1 [Cpd 63]	> 800 nM				> 800 nM	> 800 nM	> 800 nM				
COc1cccc(Cn2ncc3c4oc(C)nc4n(C)c3c2=O)c1 [Cpd 3]	301 to 800 nM				> 800 nM	> 800 nM	> 800 nM				
Cc1nc2c3cnn(Cc4ccccc4)c(=O)c3n(C)c2s1 [Cpd 26]	> 800 nM				> 800 nM	> 800 nM	> 800 nM	No Fit			
Cn1cc(Cc2ccc3c4cnn(Cc5cccc(C(N)=O)c5)c(=O)c4n(C)c3c2)cn1 [Cpd 62]	301 to 800 nM				> 800 nM	> 800 nM	> 800 nM	No Fit			
Cn1c2ccc(S(C)(=O)=O)cc2c2cnn(Cc3cccc(C(N)=O)c3)c(=O)c21 [Cpd 52]	301 to 800 nM				> 800 nM	> 800 nM	> 800 nM	No Fit			
COC(=O)c1ccc2c(c1)c1cnn(Cc3cccc(OC)c3)c(=O)c1n2C [Cpd 37]	> 800 nM				> 800 nM	> 800 nM	> 800 nM				
Cn1c2ccc([S+](C)[O-])cc2c2cnn(Cc3cccc(C(N)=O)c3)c(=O)c21 (stereo not shown) [Cpd 51]	> 800 nM				> 800 nM	> 800 nM	> 800 nM	No Fit			
CNC(=O)c1ccc2c(c1)c1cnn(Cc3cccc(OC)c3)c(=O)c1n2C [Cpd 38]	> 800 nM	No Fit	No Fit	No Fit							

Now from value to compound, other results behind:

AC50 (PKM2 WT)	PKR WT AC50 (PKR WT)	PKR K410E AC50 (PKR K410E)	PK R510Q AC50 (PK R510Q)	AC50 (PKR WT)	AC50 (PKR K410E)	AC50 (PK R510Q)	Structure (SMILES)	Cell based ATP assay AC50 (RBCs)	AC50 (RBCs; Homo sapiens, Erythrocyte)	LPS and IL-1β production (PKM2)	production of IL-10 (PKM2)
> 800 nM				> 800 nM	> 800 nM	> 800 nM	COc1cccc(CN2Cc3c(n(C)c4cc(C)sc34)C2=O)c1 [Cpd 1]				
> 800 nM				> 800 nM	> 800 nM	> 800 nM	C=Cc1ccc2c3cnn(Cc4cccc(OC)c4)c(=O)c3n(C)c2c1 [Cpd 42]				
301 to 800 nM				> 800 nM	> 800 nM	301 to 800 nM	COc1cccc(Cn2ncc3c4ccc(Cc5ccccc5)cc4n(C)c3c2=O)c1 [Cpd 60]				
> 800 nM	No Fit		No Fit		> 800 nM		COc1cccc(Cn2ncc3c4c(C)cccc4n(C)c3c2=O)c1 [Cpd 46]				
301 to 800 nM				> 800 nM	> 800 nM	> 800 nM	COc1cccc(Cn2ncc3c4cc(O)ccc4n(C)c3c2=O)c1 [Cpd 48]				
301 to 800 nM				> 800 nM	> 800 nM	> 800 nM	COc1cccc(Cn2ncc3c4cc(CO)ccc4n(C)c3c2=O)c1 [Cpd 44]				
< 300 nM				< 300 nM	< 300 nM	< 300 nM	COc1cccc(Cn2ncc3c4sc(Cc5ccccc5)cc4n(C)c3c2=O)c1 [Cpd 4]				
> 800 nM				> 800 nM	> 800 nM	> 800 nM	COc1cccc(Cn2ncc3c4cc(Cc5ccccc5)ccc4n(C)c3c2=O)c1 [Cpd 34]				
< 300 nM				> 800 nM	> 800 nM	> 800 nM	COc1cccc(Cn2ncc3c4cc(C#N)ccc4n(C)c3c2=O)c1 [Cpd 45]				
< 300 nM		No Fit	No Fit	> 800 nM			CNC(=O)c1ccc2c3cnn(Cc4cccc(OC)c4)c(=O)c3n(C)c2c1 [Cpd 41]				
> 800 nM				> 800 nM	> 800 nM	> 800 nM	CCc1ccc2c3cnn(Cc4cccc(OC)c4)c(=O)c3n(C)c2c1 [Cpd 43]				
> 800 nM	No Fit	No Fit	No Fit				COc1cccc(Cc2ccc3c4sc(C)cc4n(C)c3c2)c1 [Cpd 2]				
